One compound from article PMC3847131, “Functional characterization of a serine-threonine protein kinase from Bambusa balcooa that implicates in cellulose overproduction and superior quality fiber formation” (BMC Plant Biology, 2013) can be followed below.

This test concerns the target T1, BbKst-kinase (serine/threonine protein kinase BbKst).
T1 construct: kinase domain (from 2233 to 3342 bp of cDNA), His-fused, expressed in E. coli BL21
In words: in vitro […] kinase assay with purified kinase domain. Format: biochemical, Bambusa balcooa.

As a reminder, the IC50 is the midpoint of a concentration-inhibition curve. A low value points to greater potency. On to `O=c1c(O)c(-c2ccc(O)c(O)c2)oc2cc(O)cc(O)c12` [quercetin], for which the concentration for half-maximal inhibition (IC50) turned out to be 7 nM.
